# Results as given in patent US20260022143A1, “Cyclic Peptide Inhibitors of IL-23” (JANSSEN PHARMACEUTICA NV, priority 2022, published 2026).
# Structures can show the parent of a compound that is named as a salt. Starred links: 1 amine or outer side, 2 acyl side, 3 side chain; linkers in the order of their positions; H or OH if unused. Positions of bridges follow the written chain, without caps; N, C: chain ends. Non-standard residues stand in square brackets, D forms with d. Residues, ends and D or L forms follow the SMILES beside them. *: point of attachment. Trp(7-Me) = Cc1cccc2c(C[C@H](N)C(=O)O)c[nH]c12; Hexanoyl(6-NMe3+) = C[N+](C)(C)CCCCCC(=O)*; X63 = C[N+]1(C)CCC(N[*:1])(C(=O)[*:2])CC1; 2Nal = N[C@@H](Cc1ccc2ccccc2c1)C(=O)O; 3Pal = N[C@@H](Cc1cccnc1)C(=O)O; Lys(Me) = CNCCCC[C@H](N)C(=O)O; Pen = CC(C)(S)[C@H](N)C(=O)O; Thp = NC1(C(=O)O)CCOCC1; Dap = NC[C@H](N)C(=O)O; Me2NCH2CH2 = CN(C)CC*; Tfa = O=C(C(F)(F)F)*; Sar = CNCC(=O)O
# Tests used:
# IL-23R = molecular target: T1, IL-23R (Homo sapiens, UniProt Q5VWK5); test: IL23R Reporter Assay; format: cell-based; details: HEK293 cells containing IL-23R, IL-12RP1 and STAT-inducible firefly luciferase reporter; 10 ng/mL IL-23 (EC90); 5 h at 37° C.; read-out: IL23R Reporter Assay
# T1 construct: host or cells: HEK293
# T1 sequence (Q5VWK5 24-629): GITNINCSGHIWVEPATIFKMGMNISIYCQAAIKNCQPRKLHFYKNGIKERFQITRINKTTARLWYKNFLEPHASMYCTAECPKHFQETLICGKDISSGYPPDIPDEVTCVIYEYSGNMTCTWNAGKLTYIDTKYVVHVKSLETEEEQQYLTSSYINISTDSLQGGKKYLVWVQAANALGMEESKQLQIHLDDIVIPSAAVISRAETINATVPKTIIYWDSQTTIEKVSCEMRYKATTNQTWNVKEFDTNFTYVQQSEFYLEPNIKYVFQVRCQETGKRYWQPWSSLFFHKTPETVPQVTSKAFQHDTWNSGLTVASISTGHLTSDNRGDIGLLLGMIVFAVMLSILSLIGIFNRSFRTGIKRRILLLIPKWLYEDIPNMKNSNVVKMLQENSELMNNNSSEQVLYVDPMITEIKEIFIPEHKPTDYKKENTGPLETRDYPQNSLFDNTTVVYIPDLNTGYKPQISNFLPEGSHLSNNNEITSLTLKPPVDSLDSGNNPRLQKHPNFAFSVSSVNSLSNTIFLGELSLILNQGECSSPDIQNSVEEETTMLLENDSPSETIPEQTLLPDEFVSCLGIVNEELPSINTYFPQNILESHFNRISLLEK
# [1] = Exposed Polar Surface Area (EPSA); format: physicochemical; details: SFC on Chirex 3014 column; sample 1 mM DMSO stock; read-out: EPSA
# Procedure, shortened: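 Polarity descriptor in Å² derived from retention time using 8 calibration standards re-run every 20 compounds. Duplicate injections of 1 mM DMSO stock; linear 5–60% modifier gradient (20 mM ammonium formate in MeOH) with CO2 at 4 mL/min, 35 °C, on a Chirex 3014 column.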
IC50 (IL-23R) [nM],EPSA [1] [A^2],Structure (SMILES)
4.6,139,"Cc1cccc2c(C[C@@H]3NC(=O)[C@H]([C@@H](C)O)NC(=O)[C@H](CC(=O)N(C)C)NC(=O)[C@@H](NC(=O)[C@@H](CCCCNC(=O)CCCCC[N+](C)(C)C)NC(=O)C(F)(F)F)C(C)(C)SSC(C)(C)[C@@H](C(=O)N[C@@H](Cc4ccc(OCCN(C)C)cc4)C(=O)N[C@@H](Cc4ccc5ccccc5c4)C(=O)NC4(C(=O)N[C@@H](CCC(=O)N(C)C)C(=O)N[C@@H](CC(N)=O)C(=O)N[C@@H](Cc5cccnc5)C(=O)N(C)CC(=O)N(C)C)CCOCC4)NC(=O)[C@H](CCC(=O)N(C)C)NC3=O)c[nH]c12 [compound 96, CF3CO-k(5cpa)-Pen(3)-N(N(Me)2)-T-7MeW-Q(N(Me)2)-Pen(3)-AEF(N(Me)2)-2Nal-THP-Q(N(Me)2)-N-3Pya-Sar-CON(Me)2] (Tfa-[dK](Hexanoyl(6-NMe3+))[Pen]D(NMe2)T[Trp(7-Me)]E(NMe2)[Pen]Y(Me2NCH2CH2)[2Nal][Thp]E(NMe2)N[3Pal][Sar]-NMe2; disulfide 2-7)"
5.8,152,"Cc1cccc2c(C[C@@H]3NC(=O)[C@H]([C@@H](C)O)NC(=O)[C@H](CC(=O)N(C)C)NC(=O)[C@@H](NC(=O)CCCCC[N+](C)(C)C)C(C)(C)SSC(C)(C)[C@@H](C(=O)N[C@@H](Cc4ccc(OCCN(C)C)cc4)C(=O)N[C@@H](Cc4ccc5ccccc5c4)C(=O)NC4(C(=O)N[C@@H](CCC(=O)O)C(=O)N[C@@H](CC(N)=O)C(=O)N[C@@H](Cc5cccnc5)C(=O)N(C)CC(=O)N(C)C)CCOCC4)NC(=O)[C@H](CCC(=O)N(C)C)NC3=O)c[nH]c12 [compound 97, 5cpaCO-Pen(3)-N(N(Me)2)-T-7MeW-Q(N(Me)2)-Pen(3)-AEF(N(Me)2)-2Nal-THP-E-N-3Pya-Sar-CON(Me)2] ({Hexanoyl(6-NMe3+)}-[Pen]D(NMe2)T[Trp(7-Me)]E(NMe2)[Pen]Y(Me2NCH2CH2)[2Nal][Thp]EN[3Pal][Sar]-NMe2; disulfide 1-6)"
4.6,139,"CC(=O)NC[C@H](NC(=O)C1(NC(=O)[C@H](Cc2ccc3ccccc3c2)NC(=O)[C@H](Cc2ccc(OCCN(C)C)cc2)NC(=O)[C@H]2NC(=O)[C@H](CCCCN(C)C(C)=O)NC(=O)[C@H](Cc3c[nH]c4c(C)cccc34)NC(=O)[C@H]([C@@H](C)O)NC(=O)[C@H](CC(=O)N(C)C)NC(=O)[C@@H](NC(C)=O)C(C)(C)SSC2(C)C)CCOCC1)C(=O)N[C@@H](CC(N)=O)C(=O)N[C@@H](Cc1cccnc1)C(=O)N(C)CC(=O)N(C)C [compound 98, MeCO-Pen(3)-N(N(Me)2)-T-7MeW-K(NMeAc)-Pen(3)-AEF(N(Me)2)-2Nal-THP-Dap(Ac)-N-3Pya-Sar-CON(Me)2] (Ac-[Pen]D(NMe2)T[Trp(7-Me)][Lys(Me)](Ac)[Pen]Y(Me2NCH2CH2)[2Nal][Thp][Dap](Ac)N[3Pal][Sar]-NMe2; disulfide 1-6)"
9.3,139,"Cc1cccc2c(C[C@@H]3NC(=O)[C@H]([C@@H](C)O)NC(=O)[C@H](CC(=O)N(C)C)NC(=O)[C@@H](NC(=O)CCCCC[N+](C)(C)C)C(C)(C)SSC(C)(C)[C@@H](C(=O)N[C@@H](Cc4ccc(OCCN(C)C)cc4)C(=O)N[C@@H](Cc4ccc5ccccc5c4)C(=O)NC4(C(=O)N[C@@H](CCC(=O)N(C)C)C(=O)N[C@@H](CC(N)=O)C(=O)N[C@@H](Cc5cccnc5)C(=O)N(C)CC(=O)N(C)C)CC[N+](C)(C)CC4)NC(=O)[C@H](CCC(=O)N(C)C)NC3=O)c[nH]c12 [compound 100, 5cpaCO-Pen(3)-N(N(Me)2)-T-7MeW-Q(N(Me)2)-Pen(3)-AEF(N(Me)2)-2Nal-Pip(NMe2)-Q(N(Me)2)-N-3Pya-Sar-CON(Me)2] ({Hexanoyl(6-NMe3+)}-[Pen]D(NMe2)T[Trp(7-Me)]E(NMe2)[Pen]Y(Me2NCH2CH2)[2Nal][X63]E(NMe2)N[3Pal][Sar]-NMe2; disulfide 1-6)"
